Some test systems named below: TK-10 renal; LOX IMVI melanoma; COLO 205 colon; EKVX NSCLC; HOP-62 NSCLC; MOLT-4 leukemia; A549 NSCLC; M14 melanoma; SR leukemia; NCI-H460 lung.
What all share (test): DTP human tumour cell line panel, 48 h

These results are taken from PubChem BioAssay (NCI).

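Dose response: 5 concentrations. Exposure: 48 h. Format: 96-well plates. Endpoint: linear interpolation; highest concentration if not reached. Here, GI50 denotes the concentration required for 50% inhibition of growth. TGI denotes the concentration required for complete inhibition of growth.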

One may read the TGI as the concentration giving total growth inhibition. Take `CCN(CC)CCC1CC/C(=C\c2ccc(OC)cc2)C1=O` (centres undefined): the concentration for total growth inhibition (TGI) with TK-10 renal is above 100 µM; in the assay with LOX IMVI melanoma it was above 100 µM; in the assay with COLO 205 colon, 38.9 µM; in the assay with EKVX NSCLC, above 100 µM; in the assay with HOP-62 NSCLC, above 100 µM; with MOLT-4 leukemia it was above 100 µM. Moreover, the TGI with A549 NSCLC, with M14 melanoma and in the assay with SR leukemia was above 100 µM each time.

One may read the GI50 as the concentration that inhibits growth by half. On to `S=C(Nc1ccc(-c2nc3ccccc3[nH]2)cc1)NC1CCCCC1`, for which the GI50 is 22.8 µM in the assay on TK-10 renal; 15.4 µM with LOX IMVI melanoma; 28.5 µM with EKVX NSCLC; 55.7 µM in the assay with HOP-62 NSCLC; 28.3 µM in the assay on MOLT-4 leukemia; 40.3 µM with A549 NSCLC. The GI50 is 22.6 µM with M14 melanoma and 10.9 µM in the assay on SR leukemia. Further, the total growth inhibition concentration (TGI) was 80.6 µM in the assay on TK-10 renal; above 100 µM in the assay with COLO 205 colon; above 100 µM with HOP-62 NSCLC; above 100 µM with MOLT-4 leukemia; 53.3 µM in the assay on M14 melanoma; 52.5 µM with SR leukemia.

For `COC1=CC23C=CC1[C@@H](c1ccccc1)C2=C(C)C(=O)N3C(=O)NC1CCCCC1` (some centres undefined), the TGI with TK-10 renal was 84.3 µM; in the assay on LOX IMVI melanoma, 31.2 µM; with EKVX NSCLC, above 100 µM; in the assay on HOP-62 NSCLC it was 50.2 µM; in the assay on MOLT-4 leukemia it was 45.9 µM; in the assay with A549 NSCLC it was 79.8 µM. The TGI turned out to be 38.8 µM in the assay on M14 melanoma, 42.2 µM with NCI-H460 lung and 56.8 µM in the assay on SR leukemia.

In the case of `O=C(C(O)c1cn(Cc2ccccc2)c2ccccc12)N1CCCCC1` (centres undefined), the TGI in the assay with TK-10 renal is above 10 µM; with LOX IMVI melanoma, above 100 µM; with COLO 205 colon, above 100 µM; in the assay with EKVX NSCLC, above 100 µM; in the assay on HOP-62 NSCLC, above 100 µM; in the assay on MOLT-4 leukemia, above 100 µM. Further, the concentration for total growth inhibition (TGI) in the assay on A549 NSCLC, in the assay with M14 melanoma and in the assay with SR leukemia was above 100 µM throughout.

Take `CCN(CC)CCNc1c(OC)cc(C)c2sc3ccccc3c(=O)c12`: the total growth inhibition concentration (TGI) in the assay with TK-10 renal was 21 µM; with COLO 205 colon it was 5.02 µM; in the assay with EKVX NSCLC it was 32.5 µM; in the assay with HOP-62 NSCLC, 25 µM; in the assay on MOLT-4 leukemia, 4.58 µM; in the assay on A549 NSCLC it was 18 µM. In addition, the total growth inhibition concentration (TGI) was 12.1 µM with M14 melanoma, 18.9 µM with NCI-H460 lung and 5.33 µM with SR leukemia.

As for `CN(C)c1ccc(/C=C2\Oc3cc(O)ccc3C2=O)cc1`, the TGI in the assay with TK-10 renal, with COLO 205 colon, in the assay with EKVX NSCLC, in the assay on HOP-62 NSCLC, with MOLT-4 leukemia and with A549 NSCLC was above 100 µM in each case. The TGI in the assay on M14 melanoma, with NCI-H460 lung and in the assay with SR leukemia was above 100 µM each time.

With `CC(=O)N/C(=C\c1ccc(/C=C(\NC(C)=O)c2nc3ccc(Cl)cc3[nH]2)cc1)c1nc2ccccc2[nH]1`, the TGI in the assay with TK-10 renal, in the assay with COLO 205 colon, in the assay with EKVX NSCLC, in the assay on HOP-62 NSCLC, in the assay on MOLT-4 leukemia and in the assay with A549 NSCLC was above 100 µM throughout. Further, the concentration for total growth inhibition (TGI) in the assay on M14 melanoma, in the assay with NCI-H460 lung and in the assay with SR leukemia was above 100 µM each time.

With `Cc1cc2nc3c(C(OC4OC(CO)C(O)C(O)C4O)C(O)CO)nn(-c4ccccc4)c3nc2cc1C` (centres undefined), the total growth inhibition concentration (TGI) in the assay with TK-10 renal, in the assay with LOX IMVI melanoma, in the assay with EKVX NSCLC, with HOP-62 NSCLC, in the assay with MOLT-4 leukemia and with M14 melanoma was above 100 µM each time. The concentration for total growth inhibition (TGI) with NCI-H460 lung and with SR leukemia was above 100 µM throughout.

For `c1ccc2c(c1)[I+]c1ccccc1-2`, the GI50 in the assay with TK-10 renal was above 50 µM; in the assay on LOX IMVI melanoma, above 50 µM; in the assay with COLO 205 colon it was above 50 µM; with EKVX NSCLC, 19.4 µM; in the assay with HOP-62 NSCLC it was 28 µM; in the assay on MOLT-4 leukemia, above 50 µM. For the same molecule, the GI50 in the assay on A549 NSCLC is above 50 µM; in the assay on NCI-H460 lung, 33.9 µM; with SR leukemia it was 19.4 µM. In addition, the total growth inhibition concentration (TGI) with TK-10 renal, with LOX IMVI melanoma, in the assay with COLO 205 colon, in the assay with EKVX NSCLC, in the assay with HOP-62 NSCLC and in the assay with MOLT-4 leukemia was above 50 µM throughout. Also, the TGI in the assay with A549 NSCLC, with NCI-H460 lung and with SR leukemia was above 50 µM each time.

Regarding `O=[N+]([O-])c1c(/C=N/Nc2ccccc2)oc(-c2ccc3c(c2)OCO3)c1-c1ccc2c(c1)OCO2`, the concentration for total growth inhibition (TGI) in the assay on TK-10 renal is above 100 µM; in the assay on LOX IMVI melanoma, 18.1 µM; with COLO 205 colon it was above 100 µM; in the assay on EKVX NSCLC it was above 100 µM; in the assay on HOP-62 NSCLC, above 100 µM; with A549 NSCLC, above 100 µM. For the same molecule, the TGI with M14 melanoma was above 100 µM; with SR leukemia, 29.8 µM.

Turning to `Cc1cc2c(CC(=O)O)[nH]nc2c(C(=O)O)c1C`, the TGI with TK-10 renal, with LOX IMVI melanoma, with COLO 205 colon, in the assay with EKVX NSCLC, with HOP-62 NSCLC and in the assay on MOLT-4 leukemia was above 100 µM in each case. Further, the concentration for total growth inhibition (TGI) in the assay on A549 NSCLC, in the assay with NCI-H460 lung and in the assay with SR leukemia was above 100 µM in each case.

For the molecule `CN(C)CCNc1nc2ccccc2c2c1c1c(n2Cc2ccccc2)-c2ccccc2C1=O`, the GI50 was 11.8 µM in the assay with LOX IMVI melanoma; 16.6 µM in the assay on COLO 205 colon; 16.3 µM in the assay with EKVX NSCLC; 18.1 µM in the assay on HOP-62 NSCLC; 4.77 µM with MOLT-4 leukemia; 14.6 µM with A549 NSCLC. The GI50 in the assay with M14 melanoma is 18.6 µM; in the assay with NCI-H460 lung, 10.5 µM; in the assay on SR leukemia it was 2.85 µM. Moreover, the TGI stood at 26.1 µM with LOX IMVI melanoma; 65.3 µM in the assay on COLO 205 colon; 32.3 µM in the assay on EKVX NSCLC; 37.2 µM with HOP-62 NSCLC; 18.5 µM with MOLT-4 leukemia; 46.6 µM in the assay with A549 NSCLC. Further, the results for the total growth inhibition concentration (TGI) with M14 melanoma, in the assay with NCI-H460 lung and in the assay on SR leukemia were 40.7 µM, 26.7 µM and 20.9 µM, respectively.
